Results reported in the supplement of paper PMC13380429.

Legend:
Conditions in all cases: 72 h
Caco-2 [1] = assay: cell viability relative to DMSO; higher = less toxic
Calu-3 [2] = assay: as above
U2OS [3] = assay: as above
Vero E6 [4] = assay: as above
Caco-2 [5] = assay: relative viability EC50 (midpoint between 100% and the lowest measured viability); higher = less toxic
Calu-3 [6] = assay: as above
U2OS [7] = assay: as above
Vero E6 [8] = assay: as above
Caco-2 [9] = assay: drug sensitivity score (DSS) for viability; higher = more toxic; extreme values may be limits of the assay
Calu-3 [10] = assay: as above
U2OS [11] = assay: as above
Vero E6 [12] = assay: as above
HepG2 [13] = assay: cell viability relative to DMSO; higher = less toxic
HepG2 [14] = assay: drug sensitivity score (DSS) for viability; higher = more toxic; extreme values may be limits of the assay
HepG2 [15] = assay: relative viability EC50 (midpoint between 100% and the lowest measured viability); higher = less toxic

SMILES	cell viability (Caco-2 [1]; 1 nM)	cell viability (Caco-2 [1]; 10 nM)	cell viability (Caco-2 [1]; 100 nM)	cell viability (Caco-2 [1]; 1000 nM)	cell viability (Caco-2 [1]; 10000 nM)	cell viability (Calu-3 [2]; 1 nM)	cell viability (Calu-3 [2]; 10 nM)	cell viability (Calu-3 [2]; 100 nM)	cell viability (Calu-3 [2]; 1000 nM)	cell viability (Calu-3 [2]; 10000 nM)	cell viability (U2OS [3]; 1 nM)	cell viability (U2OS [3]; 10 nM)	cell viability (U2OS [3]; 100 nM)	cell viability (U2OS [3]; 1000 nM)	cell viability (U2OS [3]; 10000 nM)	cell viability (Vero E6 [4]; 1 nM)	cell viability (Vero E6 [4]; 10 nM)	cell viability (Vero E6 [4]; 100 nM)	cell viability (Vero E6 [4]; 1000 nM)	cell viability (Vero E6 [4]; 10000 nM)	relative viability EC50 (Caco-2 [5])	relative viability EC50 (Calu-3 [6])	relative viability EC50 (U2OS [7])	relative viability EC50 (Vero E6 [8])	drug sensitivity score (Caco-2 [9])	drug sensitivity score (Calu-3 [10])	drug sensitivity score (U2OS [11])	drug sensitivity score (Vero E6 [12])	cell viability (HepG2 [13]; 1 nM)	cell viability (HepG2 [13]; 10 nM)	cell viability (HepG2 [13]; 100 nM)	cell viability (HepG2 [13]; 1000 nM)	cell viability (HepG2 [13]; 10000 nM)	drug sensitivity score (HepG2 [14])	relative viability EC50 (HepG2 [15])
CC(C)=CCC[C@](C)(O)[C@H]1CC[C@]2(C)[C@@H]1[C@H](O)C[C@@H]1[C@@]3(C)CC[C@H](O)C(C)(C)[C@@H]3[C@@H](O)C[C@]12C [hemomex-s]	113%	106%	103%	111%	96.9%	105%	109%	112%	105%	93.4%	97.4%	101%	99.8%	101%	100%	96.1%	93.9%	96.6%	98.8%	99.2%	> 10 µM	> 10 µM	> 10 µM	> 10 µM	0	0	0	0	–	–	–	–	–	–	–
Cc1c(C(=O)Nc2ccc(N3C[C@@H](C)O[C@@H](C)C3)nc2)cccc1-c1ccc(OC(F)(F)F)cc1 [sonidegib]	102%	98.8%	95.7%	98%	81.4%	109%	98.4%	92.7%	97.9%	97.2%	99.5%	94.1%	102%	96.5%	87.3%	105%	109%	102%	104%	84%	> 10 µM	> 10 µM	> 10 µM	> 10 µM	0.7	0	0.3	0.2	104%	96.8%	99.7%	98.9%	71.3%	1.4	–
N#Cc1c(N)nc(SCc2csc(-c3ccc(Cl)cc3)n2)c(C#N)c1-c1ccc(OCCO)cc1 [capadenoson]	102%	94.6%	98.8%	104%	74.8%	98%	102%	104%	104%	95.6%	99.2%	95.2%	101%	100%	79.3%	93%	98.5%	95.6%	102%	102%	–	> 10 µM	> 10 µM	> 10 µM	0.8	0	0.6	0	89%	108%	95.3%	105%	107%	0	> 10 µM
N=C(N)NCCC[C@@H](NC(=O)[C@@H]1CCCN1C(=O)[C@@H]1CSSCCC(=O)N[C@@H](Cc2ccc(O)cc2)C(=O)N[C@@H](Cc2ccccc2)C(=O)N[C@@H](CCC(N)=O)C(=O)N[C@@H](CC(N)=O)C(=O)N1)C(=O)NCC(N)=O [desmopressin-acetate]	–	–	–	–	–	101%	92.7%	110%	93.4%	102%	97.5%	93.8%	96.6%	96.3%	100%	105%	108%	106%	101%	99.4%	–	> 10 µM	> 10 µM	> 10 µM	–	0	0	0	106%	96.2%	110%	107%	106%	0	> 10 µM
COc1ccccc1Oc1c(NS(=O)(=O)c2ccc(C(C)(C)C)cc2)nc(-c2ncccn2)nc1OCCO [bosentan]	106%	98.4%	103%	96.6%	81.1%	102%	94.2%	99.1%	114%	102%	98%	102%	98%	99.9%	91%	95.1%	100%	94.3%	93.9%	85.3%	> 10 µM	> 10 µM	> 10 µM	> 10 µM	0.9	0	0	0.2	–	–	–	–	–	–	–
Cc1[nH]c2ccc(O)cc2c1CCN [2-methyl-5-hydroxytryptamine]	104%	105%	98.3%	102%	102%	109%	109%	102%	101%	99.3%	101%	101%	97.3%	106%	101%	95%	96.5%	98.4%	96.6%	94.9%	> 10 µM	> 10 µM	> 10 µM	> 10 µM	0	0	0	0	–	–	–	–	–	–	–
COc1cc(SC)ccc1C(=O)N1CCC(Cc2ccccc2)CC1 [JX-401]	95.5%	95.9%	90.9%	99%	94.5%	99.4%	114%	97.5%	103%	97.3%	–	–	–	–	–	101%	98.6%	99.8%	97.6%	94.8%	> 10 µM	> 10 µM	–	> 10 µM	0	0	–	0	104%	110%	99.9%	97.7%	106%	0	> 10 µM
COc1ccc(CCN)cc1OC [homoveratrylamine]	89.4%	77.6%	110%	79.4%	73%	100%	85.6%	113%	98.2%	95.7%	94.6%	96.1%	97.6%	97.3%	101%	108%	106%	94.9%	97.5%	96.4%	–	> 10 µM	> 10 µM	> 10 µM	2.9	0	0	0	110%	103%	98.2%	108%	115%	0	> 10 µM
CC1=C(/C=C/C(C)=C/C=C/C(C)=C/C=O)C(C)(C)CCC1 [retinaldehyde]	100%	104%	89.5%	97.8%	90.4%	98.9%	108%	104%	88.8%	87.4%	104%	107%	101%	99.4%	92.9%	99.2%	95.1%	95.2%	95.3%	99.9%	> 10 µM	> 10 µM	> 10 µM	> 10 µM	0	0.6	0	0	–	–	–	–	–	–	–
Cn1nnc(-c2ccc(-c3ccc(N4C[C@H](CO)OC4=O)cc3F)cn2)n1 [tedizolid]	113%	106%	94.2%	93.3%	82.2%	103%	95.4%	99.6%	108%	106%	101%	102%	96.7%	96.3%	94.1%	94%	99.6%	98.3%	101%	92.9%	> 10 µM	> 10 µM	> 10 µM	> 10 µM	0.6	0	0	0	111%	95.4%	99.5%	76.9%	55.7%	5.1	–
CNC(C)(C)Cc1ccccc1 [mephentermine]	97.1%	105%	104%	106%	96.8%	101%	97.4%	95.5%	102%	99.8%	–	–	–	–	–	108%	97.3%	97%	105%	104%	> 10 µM	> 10 µM	–	> 10 µM	0	0	–	0	102%	99.6%	106%	104%	91.4%	0	> 10 µM
CCOc1nc2cccc(C(=O)OCc3oc(=O)oc3C)c2n1Cc1ccc(-c2ccccc2-c2noc(=O)[nH]2)cc1 [azilsartan-medoxomil]	107%	86.4%	83.3%	107%	85.1%	104%	102%	96.3%	101%	93.1%	98.7%	101%	94.7%	97.3%	92.8%	113%	107%	107%	99.4%	101%	> 10 µM	> 10 µM	> 10 µM	> 10 µM	0.1	0	0	0	–	–	–	–	–	–	–
CCCCCCCCCCCCCCCCO [1-hexadecanol]	107%	97.4%	87.3%	96.6%	95.1%	94%	95.5%	102%	95.5%	97.3%	97.8%	100%	97%	97.3%	92.7%	99.7%	97.3%	96%	95.9%	102%	> 10 µM	> 10 µM	> 10 µM	> 10 µM	0	0	0	0	–	–	–	–	–	–	–
Oc1c(I)cc(I)c(O)c1I [riodoxol]	94.9%	93.8%	98.1%	93.5%	104%	103%	95.1%	103%	104%	98.5%	–	–	–	–	–	101%	99.3%	99.6%	101%	94.6%	> 10 µM	> 10 µM	–	> 10 µM	0	0	–	0	97.2%	91.1%	101%	93.2%	96.9%	0	> 10 µM
O=c1[nH]c(=O)n([C@H]2C[C@H](O)[C@@H](CO)O2)cc1I [idoxuridine]	101%	101%	94%	105%	95.9%	106%	96.6%	110%	93%	96.5%	98.4%	103%	101%	106%	99.6%	99.1%	104%	97.8%	99.8%	84.5%	> 10 µM	> 10 µM	> 10 µM	> 10 µM	0	0	0	0.3	101%	104%	95.8%	94%	62.5%	2.8	–
